Data from patent publication US11046962B2, “Lux expression in cells and methods of use” (490 BioTech, Inc., priority 2019, dated 2021).
pEC50, pIC50: −log10 of the molar value.

How the values were obtained:
[1] = test system: CM-luxAB/CDEF cardiomyocytes; assay: Continuous cardiotoxicity monitoring with CM-luxAB/CDEF cardiomyocytes over 30 hours
[2] = test system: iPSC-derived cardiomyocytes (CMs); assay: Doxorubicin exposure of cardiomyocytes differentiated from tet-luxCDABEF/tTA iPSCs, autobioluminescence imaging; format: cell-based; settings: Homo sapiens, Cardiomyocyte, 18 hours exposure prior to imaging, read-out: estimated EC50
Protocol: FIG. 16. Human induced pluripotent stem cells (iPSCs) bearing genomically integrated polycistronic lux operon (luxCDABEF) under control of the tetracycline responsive promoter (tet-luxCDABEF) and a separately integrated CBA-driven transactivator (tTA) were differentiated into cardiomyocytes (CMs). After maturation for approximately 1.5 weeks, the CMs were subjected to doxorubicin exposure. CMs were exposed to doxorubicin at the indicated range of concentrations for 18 hours prior to imaging.

iPSC-luxAB/CDEF cells = assay: Compound toxicity tracking in iPSC-luxAB/CDEF line by autonomous luminescent output and MTT; format: cell-based, Human; settings: range of concentrations, 24 hours
Protocol: First, iPSC-luxAB/CDEF cells were seeded in a volume of medium in two separate multi-well plates. Identical platings of untransfected cells were made along with platings of medium to serve as positive and negative controls. For the first plate, the cells were subjected to increasing concentrations of the cytotoxic compound doxorubin. For the second plate, the cells were subjected to increasing concentrations of the cytotoxic compound rotenone. The cells were then incubated under standard growth conditions for twenty four (24) hours. After this time period, the plates was imaged for luminescent output. Bioluminescent readings were obtained using a Synergyll plate reader (BioTek).
Following this reading, the plates were subjected to viability analysis using the MTT assay according to the manufacturer's instructions. MTT assay values were obtained as absorbance values at 570 nm using a Synergyll plate reader (BioTek) and reported as percentage of absorbance relative to untreated control cells. For all measurements, the background absorbance values derived from the medium only controls were subtracted to provide background corrected averages. Absorbance values from each treatment level were averaged, and the average values for each of the plates were used to determine standard errors of the mean for each assay.

[3] = test system: CM-luxAB/CDEF cardiomyocytes; assay: Cardiotoxicity reporting by CM-luxAB/CDEF line, autobioluminescent output after 24 hours; format: cell-based; settings: Homo sapiens, Cardiomyocyte, 24 hours of treatment
Protocol: The autobioluminescent CM-luxAB/CDEF line was treated with a range of doxorubicin (uM) concentrations, and autobioluminescent output was measured after 24 hours of treatment.
The CM-luxAB/CDEF line was treated with a range of doxorubicin concentrations, and the autobioluminescent output was measured after twenty-four (24) hours of treatment. The percent change in average radiance (p/s/cm^2/sr) relative to control was plotted against the corresponding doxorubicin (uM) treatment.

COc1cccc2c1C(=O)c1c(O)c3c(c(O)c1C2=O)C[C@@](O)(C(=O)CO)C[C@@H]3O[C@H]1C[C@H](N)[C@H](O)[C@H](C)O1 [doxorubicin]
time of exposure at which the IC50 stabilizes ([1]; kinetic IC50 values over time course, measured every 10 minutes): ~30 h
autobioluminescent output with increasing concentrations ([1]; real time monitoring, 25 hours after addition): decreasing autobioluminescent output
pEC50 [2]: 6.13 to 6.39
change of autonomous luminescent signal output indicative of cellular viability (iPSC-luxAB/CDEF cells): dose dependent changes
pIC50 [3]: 6.54
